Measurements from the Kinase Knowledgebase extract (Sharma et al. 2016).
pIC50: −log10 of the molar value.

Target: MAPK14 (human) (UniProt Q16539)
Assay: Inhibition of MAPK14 Kinase Activity

Chain of MAPK14 (human) (Q16539 whole entry, looked up): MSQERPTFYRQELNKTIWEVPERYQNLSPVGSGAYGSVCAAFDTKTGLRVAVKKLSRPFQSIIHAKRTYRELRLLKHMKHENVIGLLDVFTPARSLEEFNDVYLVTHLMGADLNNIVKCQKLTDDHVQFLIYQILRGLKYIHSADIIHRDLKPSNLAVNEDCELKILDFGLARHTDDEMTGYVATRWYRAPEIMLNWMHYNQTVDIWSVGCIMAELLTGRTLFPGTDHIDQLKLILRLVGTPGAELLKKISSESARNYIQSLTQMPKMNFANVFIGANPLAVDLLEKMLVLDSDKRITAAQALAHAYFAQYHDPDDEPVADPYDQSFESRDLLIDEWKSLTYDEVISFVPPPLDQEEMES

Cc1cc(NC(=O)OC(C)(C)C)cc(C)c1N1CC(Cc2ccc(F)cc2F)CCC1=O (stereo unspecified)
pIC50: ≥ 5.00

O=C1CCC(Cc2ccc3ccccc3c2)CN1c1c(Cl)cncc1Cl (stereo unspecified)
pIC50: ≥ 5.00

CNc1ncc(Cl)c(N2CC(Oc3ccc(F)cc3F)CCC2=O)c1Cl (stereo unspecified)
pIC50: ≥ 5.00

O=C1CCC(Cc2cccc3ccccc23)CN1c1c(Cl)cccc1Cl (stereo unspecified)
pIC50: ≥ 5.00

CNc1sc(Cl)c(N2CC(Oc3ccc(F)cc3F)CCC2=O)c1Cl (stereo unspecified)
pIC50: ≥ 5.00

O=C1CCC(Oc2ccc(F)cc2)CN1c1c(Cl)cccc1Cl (stereo unspecified)
pIC50: ≥ 5.00

CC(C)(C)OC(=O)Nc1ccc(Cl)c(N2CC(Cc3ccc(F)cc3F)CCC2=O)c1 (stereo unspecified)
pIC50: ≥ 5.00

O=C1CCC(Sc2cc(Cl)cc(Cl)c2)CN1c1c(Cl)csc1Cl (stereo unspecified)
pIC50: ≥ 5.00

O=C1CCC(Cc2ccc(F)cc2F)CN1c1c(Cl)cc(NCc2ccccc2O)cc1Cl (stereo unspecified)
pIC50: ≥ 5.00

O=C1CCC(Sc2cc(F)cc(F)c2)CN1c1c(Cl)cncc1Cl (stereo unspecified)
pIC50: ≥ 5.00

CNc1cnc(Cl)c(N2CC(Cc3ccc(F)cc3F)CCC2=O)c1Cl (stereo unspecified)
pIC50: ≥ 5.00

O=C1CCC(Cc2cc(F)cc(F)c2)CN1c1c(Cl)csc1Cl (stereo unspecified)
pIC50: ≥ 5.00

Cc1cc(C)cc(CC2CNC(=O)N(c3c(Cl)cccc3Cl)C2)c1 (stereo unspecified)
pIC50: ≥ 5.00

O=C1CCC(Oc2ccc(F)cc2F)CN1c1c(Cl)ccnc1Cl (stereo unspecified)
pIC50: ≥ 5.00

O=C1OCC(Cc2ccc(F)cc2F)CN1c1c(Cl)cc(O)cc1Cl (stereo unspecified)
pIC50: ≥ 5.00

Cc1cc(NC(=O)OC(C)(C)C)cc(C)c1N1CC(Cc2ccc(F)cc2F)CNC1=O (stereo unspecified)
pIC50: ≥ 5.00

O=C1CCC(Cc2ccc(F)cc2F)CN1c1c(Cl)ccc(CO)c1Cl (stereo unspecified)
pIC50: ≥ 5.00

O=C1CCC(Cc2ccc(F)cc2F)CN1c1c(Cl)cc(NCCN2CCOCC2)cc1Cl (stereo unspecified)
pIC50: ≥ 5.00

Nc1ccc(Cl)c(N2CC(Cc3ccc(F)cc3F)COC2=O)c1Cl (stereo unspecified)
pIC50: ≥ 5.00

O=C(CNc1cc(Cl)c(N2CC(Cc3ccc(F)cc3F)CCC2=O)c(Cl)c1)NO (stereo unspecified)
pIC50: ≥ 5.00

Cc1cccc(C)c1N1CC(CCCc2ccccc2)CCC1=O (stereo unspecified)
pIC50: ≥ 5.00

O=C1CC/C(=C\c2ccc(F)cc2F)CN1c1c(Cl)cccc1Cl
pIC50: ≥ 5.00

O=C1CCC(Oc2cc(Cl)cc(Cl)c2)CN1c1c(Cl)csc1Cl (stereo unspecified)
pIC50: ≥ 5.00

O=C1CCC(Cc2ccc(F)cc2)CN1c1c(Cl)csc1Cl (stereo unspecified)
pIC50: ≥ 5.00

CNc1ncc(Cl)c(N2CC(Sc3ccc(F)cc3F)CCC2=O)c1Cl (stereo unspecified)
pIC50: ≥ 5.00

Cc1cccc(C)c1N1C[C@@H](NS(=O)(=O)c2ccc(F)cc2F)CCC1=O
pIC50: ≥ 5.00

COc1ccccc1SC1CCC(=O)N(c2c(Cl)ccnc2Cl)C1 (stereo unspecified)
pIC50: ≥ 5.00

O=C(O)CCC(=O)Nc1cc(Cl)c(N2CC(Cc3ccc(F)cc3F)CCC2=O)c(Cl)c1 (stereo unspecified)
pIC50: ≥ 5.00

CC(C)(C)OC(=O)Nc1cc(Cl)c(N2CC(C(O)c3ccc(F)cc3F)CCC2=O)c(Cl)c1 (stereo unspecified)
pIC50: ≥ 5.00

O=C1CCC(Oc2ccc(F)cc2F)CN1c1c(Cl)cc(CO)nc1Cl (stereo unspecified)
pIC50: ≥ 5.00

O=C1CCC(Cc2ccc(F)cc2F)CN1c1c(Cl)cc([N+](=O)[O-])cc1Cl (stereo unspecified)
pIC50: ≥ 5.00

CC(C)(C)NC(=O)CNc1cc(Cl)c(N2CC(Cc3ccc(F)cc3F)CCC2=O)c(Cl)c1 (stereo unspecified)
pIC50: ≥ 5.00

O=C1CSC(Cc2ccc(F)cc2F)CN1c1c(Cl)ccc(O)c1Cl (stereo unspecified)
pIC50: ≥ 5.00

Cc1ccc(CC2CN(c3c(Cl)cccc3Cl)C(=O)CS2)cc1 (stereo unspecified)
pIC50: ≥ 5.00

Cc1nc[nH]c1CNc1cc(Cl)c(N2CC(Cc3ccccc3)CCC2=O)c(Cl)c1 (stereo unspecified)
pIC50: ≥ 5.00

CCc1ccc(CC2CCC(=O)N(c3c(Cl)cccc3Cl)C2)cc1 (stereo unspecified)
pIC50: ≥ 5.00

O=C(Cc1ccccc1)Nc1cc(Cl)c(N2CC(Cc3ccc(F)cc3F)COC2=O)c(Cl)c1 (stereo unspecified)
pIC50: ≥ 5.00

O=C1CCC(Cc2ccc(F)cc2F)CN1c1c(Cl)cc(C#CCO)cc1Cl (stereo unspecified)
pIC50: ≥ 5.00

O=C1CCC(Sc2ccc(F)cc2F)CN1C1C(Cl)CCCC1Cl (stereo unspecified)
pIC50: ≥ 5.00

O=C1COC(Cc2ccc3ccccc3c2)CN1c1c(Cl)cccc1Cl (stereo unspecified)
pIC50: ≥ 5.00

O=C1OCC(Cc2cccc3ccccc23)CN1c1c(Cl)cccc1Cl (stereo unspecified)
pIC50: ≥ 5.00

O=C1CCC(Cc2ccc(F)cc2F)CN1c1c(Cl)cc(NCCN2CCCCC2)cc1Cl (stereo unspecified)
pIC50: ≥ 5.00

O=C1CCC(Cc2ccc(F)cc2F)CN1c1nccs1 (stereo unspecified)
pIC50: ≥ 5.00

O=C1CSC(Cc2ccc(F)cc2F)CN1c1c(Cl)cccc1Cl (stereo unspecified)
pIC50: ≥ 5.00

O=C(Cc1ccccc1)NC1CCC(Cl)C(N2CC(Cc3ccc(F)cc3F)CCC2=O)C1Cl (stereo unspecified)
pIC50: ≥ 5.00

Cc1ccc(SC2CCC(=O)N(c3c(Cl)csc3Cl)C2)cc1 (stereo unspecified)
pIC50: ≥ 5.00

O=C1CCC(Oc2cc(F)cc(F)c2)CN1c1c(Cl)csc1Cl (stereo unspecified)
pIC50: ≥ 5.00

O=C1CCC(Cc2cc(Cl)cc(Cl)c2)CN1c1c(Cl)csc1Cl (stereo unspecified)
pIC50: ≥ 5.00

CNc1cc(Cl)c(N2CC(Cc3ccc(F)cc3F)SCC2=O)c(Cl)c1 (stereo unspecified)
pIC50: ≥ 5.00

O=C(Cc1ccccc1)Nc1ncc(Cl)c(N2CC(Cc3ccc(F)cc3F)CCC2=O)c1Cl (stereo unspecified)
pIC50: ≥ 5.00

O=C1CCC(Cc2ccc(F)cc2F)CN1c1c(Cl)cc(C#CCCO)cc1Cl (stereo unspecified)
pIC50: ≥ 5.00

Nc1cc(Cl)c(N2CC(Cc3ccc(F)cc3F)COC2=O)c(Cl)c1 (stereo unspecified)
pIC50: ≥ 5.00

O=C1SCC(Cc2ccc3ccccc3c2)CN1c1c(Cl)cccc1Cl (stereo unspecified)
pIC50: ≥ 5.00

COc1ccccc1CC1CCC(=O)N(c2c(Cl)csc2Cl)C1 (stereo unspecified)
pIC50: ≥ 5.00

N#CCCc1cc(Cl)c(N2CC(Cc3ccc(F)cc3F)CCC2=O)c(Cl)c1 (stereo unspecified)
pIC50: ≥ 5.00

O=C1CCC(Cc2ccccc2Cl)CN1c1c(Cl)csc1Cl (stereo unspecified)
pIC50: ≥ 5.00

O=Cc1ccccc1CC1CCC(=O)N(c2c(Cl)cccc2Cl)C1 (stereo unspecified)
pIC50: ≥ 5.00

O=C1NCC(Cc2ccc(Cl)cc2Cl)CN1c1c(Cl)cccc1Cl (stereo unspecified)
pIC50: ≥ 5.00

Nc1ccc(N2CC(Cc3ccc(F)cc3F)CCC2=O)c(Cl)c1 (stereo unspecified)
pIC50: ≥ 5.00

CNC1CC(Cl)C(N2CC(Oc3ccc(F)cc3F)CCC2=O)C(Cl)C1 (stereo unspecified)
pIC50: ≥ 5.00

O=C1SCC(Cc2cc(Cl)cc(Cl)c2)CN1c1c(Cl)cccc1Cl (stereo unspecified)
pIC50: ≥ 5.00

CS(=O)(=O)Nc1cc(Cl)c(N2CC(Cc3ccc(F)cc3F)CCC2=O)c(Cl)c1 (stereo unspecified)
pIC50: ≥ 5.00

CC(=O)Nc1cc(Cl)c(N2CC(Cc3ccc(F)cc3F)CSC2=O)c(Cl)c1 (stereo unspecified)
pIC50: ≥ 5.00

O=C1CCC(Sc2cc(Cl)cc(Cl)c2)CN1c1c(Cl)ccnc1Cl (stereo unspecified)
pIC50: ≥ 5.00

CN1CCC(Nc2cc(Cl)c(N3CC(Cc4ccc(F)cc4F)CCC3=O)c(Cl)c2)CC1 (stereo unspecified)
pIC50: ≥ 5.00

O=C1CCC(Cc2ccc(OC(F)(F)F)cc2)CN1c1c(Cl)cccc1Cl (stereo unspecified)
pIC50: ≥ 5.00

Cc1ccc(CC2CCC(=O)N(c3c(Cl)cccc3Cl)C2)cc1 (stereo unspecified)
pIC50: ≥ 5.00

O=C1CCC(Cc2ccccc2Cl)CN1c1c(Cl)cncc1Cl (stereo unspecified)
pIC50: ≥ 5.00

O=C1CCC(Cc2ccc(Cl)cc2)CN1C1C(Cl)CCCC1Cl (stereo unspecified)
pIC50: ≥ 5.00

O=C1CCC(Cc2ccc(F)cc2F)CN1c1cc(Cl)cc(Cl)c1 (stereo unspecified)
pIC50: ≥ 5.00

O=C1CC[C@H](Cc2ccc(F)cc2F)CN1c1c(Cl)cccc1Cl
pIC50: ≥ 5.00

O=C1CSC(Cc2ccc(F)cc2F)CN1c1c(Cl)ccc(CO)c1Cl (stereo unspecified)
pIC50: ≥ 5.00

Cc1ccccc1OC1CCC(=O)N(c2c(Cl)cccc2Cl)C1 (stereo unspecified)
pIC50: ≥ 5.00

O=C1CCC(Oc2ccc(F)cc2F)CN1c1c(Cl)cncc1Cl (stereo unspecified)
pIC50: ≥ 5.00

O=C1CCC(Cc2ccc(F)cc2F)CN1c1c(Cl)cc(NCCN2CCCC2)cc1Cl (stereo unspecified)
pIC50: ≥ 5.00

O=C1CCC(Cc2cccc3ccccc23)CN1c1c(Cl)ccnc1Cl (stereo unspecified)
pIC50: ≥ 5.00

O=C1CCC(Oc2cc(Cl)cc(Cl)c2)CN1c1c(Cl)ccnc1Cl (stereo unspecified)
pIC50: ≥ 5.00

Cc1ccc(OC2CCC(=O)N(c3c(Cl)csc3Cl)C2)cc1 (stereo unspecified)
pIC50: ≥ 5.00

O=C1CCC(Oc2ccc(F)cc2F)CN1c1c(Cl)sc(O)c1Cl (stereo unspecified)
pIC50: ≥ 5.00

O=C1CCC(Cc2ccc(F)cc2F)CN1c1c(Cl)cc(O)cc1Cl (stereo unspecified)
pIC50: ≥ 5.00

O=C1CCC(Sc2cc(F)cc(F)c2)CN1C1C(Cl)CCCC1Cl (stereo unspecified)
pIC50: ≥ 5.00
